Earlier results, collected in US20120302500A1, “USE OF SO[…] IN MENINGIOMA” (NOVARTIS AG, priority 2008, published 2012).
Starred links: 1 amine or outer side, 2 acyl side, 3 side chain; linkers in the order of their positions; H or OH if unused. Non-standard residues stand in square brackets, D forms with d. Residues, ends and D or L forms follow the SMILES beside them. Groups on a side chain read outwards from the residue. *: point of attachment. Ethylenediamine = C(CN[*:2])N[*:1]; Hyp = O=C(O)[C@@H]1C[C@@H](O)CN1; Phg = N[C@H](C(=O)O)c1ccccc1; CO = O=C([*:1])[*:2]; Bn = c1ccc(C*)cc1

Settings: in vivo

NCCCC[C@@H]1NC(=O)[C@@H](Cc2c[nH]c3ccccc23)NC(=O)[C@H](c2ccccc2)NC(=O)[C@@H]2C[C@@H](OC(=O)NCCN)CN2C(=O)[C@H](Cc2ccccc2)NC(=O)[C@H](Cc2ccc(OCc3ccccc3)cc2)NC1=O [pasireotide, cyclo[{4-(NH2—C2H4—NH—CO—O—)Pro}-Phg-DTrp-Lys-Tyr(4-Bzl)-Phe]] (cyclo([Hyp]([CO-Ethylenediamine])[Phg][dW]KY(Bn)F))
half-life: 11 h
